Source: patent US9597417B2, “Compositions and methods to evaluate hepatobiliary/gastrointestinal health, enterohepatic circulation, and drug interactions” (The United States of America as represented by the …, priority 2013, dated 2017)
≈ marks a conversion by molar mass, not a printed value. Where “and” joins values, the source holds several entries; their conditions need not be identical. Identical values can stand only once. Entries after “also recorded” stand apart in the source; their conditions may differ. Like-named read-outs stand apart in the source and are kept apart here.

Tests used:
[1] = Murine gallbladder imaging (mouse 6), 19F MRI and LC/MS/MS; assay type: in vivo, C57BL/6 mice; details: for concentration at 8.2 h: male, mouse 6, after imaging
[2] = biological target: choloylglycine hydrolase from Clostridium perfringens (Clostridium perfringens, UniProt P54965); details: 2 mM compound, 15 U CGH, pH 5.6, 37° C., ±SEM
[3] = biological target: T1, human apical sodium dependent bile acid transporter (hASBT) (Homo sapiens, UniProt Q12908); assay: Inhibition of taurocholate uptake by ASBT in stably transfected ASBT-MDCK cells; assay type: cell-based
T1 sequence (Q12908 1-348): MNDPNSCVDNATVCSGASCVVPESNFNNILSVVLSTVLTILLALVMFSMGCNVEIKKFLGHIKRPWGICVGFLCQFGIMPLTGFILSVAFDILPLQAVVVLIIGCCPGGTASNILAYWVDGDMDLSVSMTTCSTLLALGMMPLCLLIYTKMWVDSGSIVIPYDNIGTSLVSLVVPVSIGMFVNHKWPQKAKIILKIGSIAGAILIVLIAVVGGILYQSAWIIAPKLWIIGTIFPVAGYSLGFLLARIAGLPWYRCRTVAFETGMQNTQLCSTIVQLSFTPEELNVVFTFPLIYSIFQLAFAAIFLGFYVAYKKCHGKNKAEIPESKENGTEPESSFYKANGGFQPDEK

[4] = biological target: T2, human Na+/taurocholate cotransporting polypeptide (hNTCP) (Homo sapiens, UniProt Q14973); assay: Inhibition of taurocholate uptake by NTCP in stably transfected NTCP-HEK cells; assay type: cell-based
T2 sequence (Q14973 1-349): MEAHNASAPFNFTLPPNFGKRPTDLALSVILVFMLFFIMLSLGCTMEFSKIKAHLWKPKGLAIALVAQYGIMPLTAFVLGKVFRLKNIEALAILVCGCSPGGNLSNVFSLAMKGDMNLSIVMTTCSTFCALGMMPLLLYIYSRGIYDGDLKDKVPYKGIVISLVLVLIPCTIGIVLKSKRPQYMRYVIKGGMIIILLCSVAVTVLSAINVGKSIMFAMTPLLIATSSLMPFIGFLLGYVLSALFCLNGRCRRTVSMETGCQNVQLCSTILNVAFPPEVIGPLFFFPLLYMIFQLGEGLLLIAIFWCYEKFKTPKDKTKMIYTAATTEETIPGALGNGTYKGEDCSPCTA

[5] = In vitro stability in 0.1 M HCl, rat plasma, rat liver s9 fraction and simulated intestinal fluid; details: 37° C.
[6] = biological target: T3, hNTCP (sodium-independent passive uptake) (Homo sapiens, UniProt Q14973); assay: Uptake of substrate by NTCP in NTCP-HEK cells; assay type: cell-based; details: human; NTCP-HEK cells, sodium free buffer; read-out: passive permeability (Pp)
T3 sequence (Q14973 1-349): T2 sequence (Q14973 1-349)

[7] = biological target: T2, human Na+/taurocholate cotransporting polypeptide (hNTCP); assay: Uptake of substrate by NTCP in NTCP-HEK cells; assay type: cell-based; details: NTCP uptake
[8] = Disposition in Asbt knockout (Slc10a2-/-) and wild-type mice; assay type: in vivo; details: for gallbladder concentration / concentration at 7 h: n=4, 7 h after gavage 150 mg/kg, ±SEM; for gallbladder concentration: LC/MS/MS; for concentration at 7 h: mouse, oral, 150 mg/kg
Protocol: Asbt-deficient (Slc10a2-/-) mice were obtained from a colony maintained at the Wake Forest School of Medicine. […] Gallbladder, liver, and plasma samples were collected at 7 h after dosing, and tissues were processed as described above and analyzed by LC/MS/MS.

[9] = biological target: T1, human apical sodium dependent bile acid transporter (hASBT); assay: Uptake of substrate by ASBT in ASBT-MDCK cells; assay type: cell-based; details: ASBT uptake
[10] = biological target: T4, hASBT (sodium-independent passive uptake) (Homo sapiens, UniProt Q12908); assay: Uptake of substrate by ASBT in ASBT-MDCK cells; assay type: cell-based; details: human; ASBT-MDCK cells, sodium free buffer; read-out: passive permeability (Pp)
T4 sequence (Q12908 1-348): T1 sequence (Q12908 1-348)

[11] = Oral disposition characterization: pilot study in mice; details: for concentration at 7 h: male, C57BL/6, mouse, po
[12] = Solubility in buffer; assay type: physicochemical; details: phosphate buffer, aqueous buffer, thermodynamic from solid; pH 6.8, room temperature, overnight, n=3, ±SEM
Protocol: Five (5) mg of compound was added to silanized centrifuge tubes containing 100 μL phosphate buffer at pH 6.8 (n=3), shaken, and left overnight at room temperature. […] Supernatant was diluted 10,000-fold with 1:1 ACN:water and analyzed by LC/MS/MS.

[13] = biological target: T2, human Na+/taurocholate cotransporting polypeptide (hNTCP); details: literature / historic data, same cell line; read-out: NTCP Km; cited from earlier work
[14] = substrate: [H][C@@]12C[C@H](O)CC[C@]1(C)[C@@]1([H])C[C@H](O)[C@@]3(C)[C@@]([H])(CC[C@]3([H])C(C)CCC(=O)N(CCNC(=O)C(F)(F)F)CC(=O)O)[C@]1([H])[C@H](O)C2; assay: Uptake of substrate by ASBT in ASBT-MDCK cells; assay type: cell-based, human; details: other: uptake, 0-200 uM donor, hASBT-MDCK cells, ±SEM; 37.0 °C
[15] = substrate: [H][C@@]12C[C@H](O)CC[C@]1(C)[C@@]1([H])C[C@H](O)[C@@]3(C)[C@@]([H])(CC[C@]3([H])C(C)CCC(=O)N(CCNC(=O)C(F)(F)F)CC(=O)O)[C@]1([H])[C@H](O)C2; assay: Uptake of substrate by NTCP in NTCP-HEK cells; assay type: cell-based, human; details: other: uptake, 0-200 uM donor, hNTCP-HEK cells, ±SEM; 37.0 °C
[16] = individual mice 1-5, 7 h after oral 150 mg/kg, LC/MS/MS, 150 mg/kg

Sequence of choloylglycine hydrolase from Clostridium perfringens (P54965 whole entry, looked up): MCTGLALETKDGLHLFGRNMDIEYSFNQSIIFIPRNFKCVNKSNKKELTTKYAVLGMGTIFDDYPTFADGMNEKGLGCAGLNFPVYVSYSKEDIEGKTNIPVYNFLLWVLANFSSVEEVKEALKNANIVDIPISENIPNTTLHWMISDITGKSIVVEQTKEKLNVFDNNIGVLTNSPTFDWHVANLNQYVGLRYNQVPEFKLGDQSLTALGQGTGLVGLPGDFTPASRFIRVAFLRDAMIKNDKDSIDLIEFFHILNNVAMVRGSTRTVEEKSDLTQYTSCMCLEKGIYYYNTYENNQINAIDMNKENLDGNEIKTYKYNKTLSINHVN

Q: What does the source list for `CC(CCC(=O)N(CCNC(=O)C(F)(F)F)CC(=O)O)[C@H]1CC[C@H]2[C@@H]3[C@H](O)C[C@@H]4C[C@H](O)CC[C@]4(C)[C@H]3C[C@H](O)[C@]12C` (stereo partly shown) [CA-sar-TFMA, Cholic acid-sarcosine-trifluoro-N-methyl-acetamide]?
A: concentration at 8.2 h ([1]; C57BL/6, liver, oral 150 mg/kg, read-out: liver concentration): 7660 nM; concentration at 8.2 h ([1]; C57BL/6, plasma, oral 150 mg/kg, read-out: plasma concentration): 870 nM; LC/MS/MS gallbladder concentration, fold lower than by MRI ([1]; mouse 6): 2.3 fold; gallbladder concentration by 19F MRI (gallbladder ROI normalized to phantom ROI) ([1]; mouse 6, 6.2-8.2 h after oral gavage of 150 mg/kg): 34.2 mM; gallbladder concentration by LC/MS/MS ([1]; mouse 6, after imaging and euthanasia, oral 150 mg/kg): 14.8 mM; compound remaining after 4 h [2]: 103.9±2.9%; Ki [3]: 21.5 ± 4 µM; Ki [4]: 2.64 ± 0.55 µM; stability: concentration at t=4 h vs initial concentration ([5]; 0.1 M HCl, 5 μM): no evidence of degradation; also recorded: not different from initial concentration; stability: concentration at t=4 h vs initial concentration ([5]; rat plasma, 5 μM): no evidence of degradation; also recorded: not different from initial concentration; stability: concentration at t=4 h vs initial concentration ([5]; simulated intestinal fluid with pancreatic enzymes (SIF), pH 7.5, 5 μM): no evidence of degradation; also recorded: not different from initial concentration; Papp [6]: 0.043 ×10⁻⁶ cm/s; normVmax (normalized to taurocholate Vmax on the same occasion) [7]: 0.24; gallbladder concentration, fold higher in WT than in knockout mice ([8]; 7 h after gavage 150 mg/kg): 16.1 fold; gallbladder concentration ([8]; Asbt knockout (Slc10a2-/-) mice): 0.41 ± 0.14 mM; concentration at 7 h ([8]; liver, Asbt knockout mice, read-out: Liver concentration): 900 ± 30 nM; concentration at 7 h ([8]; liver, WT mice, read-out: Liver concentration): 4970 ± 1470 nM; concentration at 7 h ([8]; plasma, Asbt knockout mice, read-out: Plasma concentration): 220 ± 90 nM; concentration at 7 h ([8]; plasma, WT mice, read-out: Plasma concentration): 3800 ± 4150 nM; gallbladder concentration ([8]; wild-type (WT) mice): 6.61 ± 0.98 mM; normVmax (normalized to taurocholate Vmax on the same occasion) [9]: 1.50; Papp [10]: 0.21 ×10⁻⁶ cm/s; Gallbladder Conc. [11, 16]: 16.5 mM (2×) and 25.0 mM and 17.2 mM and 16.9 mM; Liver Conc. [11, 16]: 20.8 µM and 16.0 µM and 12.9 µM and 9.5 µM and 13.5 µM; Plasma Conc. [11, 16]: 1490 nM and 1810 nM and 940 nM and 1470 nM; concentration at 7 h ([11]; liver, 150 mg/kg, Average liver concentration, mean of mice 1-5, 7 h after oral 150 mg/kg, ±SEM): 14500 ± 600 nM; concentration at 7 h ([11]; plasma, 150 mg/kg, Average plasma concentration, mean of mice 1-5, 7 h after oral 150 mg/kg, ±SEM): 1400 ± 140 nM; concentration at 7 h ([11]; plasma, 150 mg/kg, Plasma Conc., individual mice 1-5, 7 h after oral 150 mg/kg, LC/MS/MS): 1310 nM; Average gallbladder concentration ([11]; mean of mice 1-5, 7 h after oral 150 mg/kg, ±SEM): 18.4 ± 1.6 mM; accumulation in liver and plasma, fold lower than in gallbladder ([11]; on average, 7 h after oral 150 mg/kg): at least 1,000 fold; solubility [12]: 33500 ± 1600 µM (≈ 20.3 mg/mL)

Q: For `C[C@H](CCC(=O)NCCS(=O)(=O)O)[C@H]1CC[C@H]2[C@@H]3[C@H](O)C[C@@H]4C[C@H](O)CC[C@]4(C)[C@H]3C[C@H](O)[C@]12C` [taurocholate], which Km [13] is on record?
A: 5.31 µM

B1: human apical sodium dependent bile acid transporter (hASBT) (Homo sapiens) (protein)
chain: T1 sequence (Q12908 1-348)
Q: Which Km [14] does the source give for B1 here?
A: 73.2 ± 7.0 µM

B2: human Na+/taurocholate cotransporting polypeptide (hNTCP) (Homo sapiens) (protein)
chain: T2 sequence (Q14973 1-349)
Q: For B2, which Km [15] is on record?
A: 2.19 ± 0.63 µM
